In patent US4042707A, “3α-Arylhydroisoindoles” (E. I. Du Pont de Nemours and Company, priority 1976, dated 1977):
Counter-ions that a name gives are not always drawn.

Tests used:
[1] = test system: phenylquinone-induced writhing; experiment: phenylquinone writhing (PQW) test, analgesic activity, oral, mice; assay type: in vivo; details: Mus musculus, fasted female white mice, phenylquinone i.p. at 23 or 30 min, ED50 for 50% of mice
Experimental: A standard procedure for detecting and comparing the analgesic acitivity of the compounds, for which there is good correlation with human efficacy, is the standard phenylquinone writhing (PQW) test modified from Siegmund, et al., Proc. Soc. Exp. Biol. Med. 95, 729 (1957). A test compound suspended in 1% methylcellulose was given orally to fasted (17-21 hours) female white mice, 5-20 animals per double blind test. Aqueous (0.01% phenyl-p-benzoquinone)phenylquinone was injected intraperitoneally at 23 or 30 minutes later using 0.25 ml per mouse. […] The effective analgesic dose for 50% of the mice (ED50) was calculated by the moving average method of Weil, Biometrics 8, 249 (1952).
(§1) Ideally a low ED50 dosage for PQW and a high ED50 dosage for ST (Straub Tail) is desired.

Straub Tail (ST), oral = details: mouse, in vivo, mice, high ED50 desired
From the text: as §1
(§2) There is a close correlation between a drug's addiction liability and its ability to cause Straub tail in mice [Shemano and Wendel, Tox. Appl. Pharm., 6, 334-339 (1964)] at doses much below the LD50. […] This property is the basis of a test for detecting new narcotic antagonist drugs.

[2] = test system: Straub tail in mice induced by morphine; details: Blumberg, Dayton, and Wolf 1968; cited from earlier work
[3] = test system: Straub tail induced by morphine sulfate; experiment: narcotic antagonist test: prevention of morphine-induced Straub tail in mice; assay type: in vivo; details: test drug s.c. 10 min before morphine sulfate 40 mg/kg s.c., observed 20 min, fasted female CF1 S mice; for ED50: Mus musculus, sc, read-out: ED50, prevention of 90° Straub tail (narcotic antagonism)
Experimental: as §2
17-21 Hour fasted female CF1 S mice 5 per dose were injected subcutaneously (loose skin inside hind limb) with test drug at 0.67, 2, 6, 18, 54, and 162 mg/kg in 0.20 ml 1% Methocel® per mouse. 10 Minutes later, a dosage of 40 mg/kg (base weight) of morphine sulfate in 0.20 ml 1% Methocel® per mouse was given subcutaneously (nape of neck). The mice were observed continuously for the next 20 minutes after the first mouse of a group of 30 had received morphine. Prevention of a 90° Straub tail during this observation period was taken as indication of narcotic antagonist ability. The table below gives the results for several compounds.

Row | Compound | ED50 [1] | ED50 (Straub Tail (ST), oral) | other results
1 | C=CCN1C[C@@H]2CC=CC[C@]2(c2ccccc2)C1 (relative stereo) | 140 mg/kg | > 200 mg/kg | –
2 | CN1C[C@@H]2CCCC[C@]2(c2ccccc2)C1 (relative stereo) | 90 mg/kg | > 200 mg/kg | –
3 | CC1=C(C)C[C@]2(c3cccc(O)c3)CN(CC3CC3)C[C@H]2C1 (relative stereo) [drawing 69] | 120 mg/kg | > 162 mg/kg | –
4 | COc1cccc([C@]23CC=CC[C@H]2CN(CCc2ccccc2)C3)c1 (relative stereo) | 26 mg/kg | – | –
5 | CC(C)=CCN1CCC2(C)c3cc(O)ccc3CC1C2C (stereo not shown) [Pentazocine, reference compound] | – | – | prevention of the induction of Straub tail [2]: can prevent the induction of Straub tail; ED50 [3]: 4 mg/kg
6 | Oc1cccc([C@]23CC=CC[C@H]2CN(CCc2ccccc2)C3)c1 (relative stereo) [Example 8, N-Phenethyl-3a-(m-hydroxyphenyl)-2,3,3a,4,7,7a-hexahydroisoindole Hydrochloride] | – | – | ED50, prevention of 90° Straub tail (narcotic antagonism) ([3]; Hydrochloride): 54 mg/kg
7 | CN1C[C@@H]2CC=CC[C@]2(c2ccccc2)C1 (relative stereo) | 32 mg/kg | > 162 mg/kg | –
8 | Oc1cccc([C@]23CC=CC[C@H]2CN(CCc2ccccc2)C3)c1 (relative stereo) [Example 7, N-Phenethyl-3a-(m-hydroxyphenyl)-2,3,3a,4,7,7a-cis-hexahydroisoindole] | – | – | ED50 [3]: 43 mg/kg
9 | CC1=C(C)C[C@]2(c3cccc(O)c3)CN(CC3CC3)C[C@H]2C1 (relative stereo) [Example 2, N-Cyclopropylmethyl-3a-(m-hydroxyphenyl)-5,6-dimethyl-2,3,3a,4,7,7a-trans-hexahydroisoindole] | – | – | ED50 [3]: 5.2 mg/kg
10 | COc1cccc([C@]23CC(C)=C(C)C[C@@H]2CN(CC2CC2)C3)c1 (relative stereo) | 78 mg/kg | > 135 mg/kg | –
11 | C=CCN1CC[C@]23c4c5ccc(O)c4O[C@H]2C(=O)CC[C@@]3(O)[C@H]1C5 [naloxone] | – | – | prevention of the induction of Straub tail [2]: can prevent the induction of Straub tail
12 | Oc1cccc([C@]23CC=CC[C@H]2CN(CCc2ccccc2)C3)c1 (relative stereo) [drawing 74] | 19 mg/kg | – | –
13 | C=CCN1CC[C@]23c4c5ccc(O)c4O[C@H]2[C@@H](O)C=C[C@H]3[C@H]1C5 [nalorphine] | – | – | prevention of the induction of Straub tail [2]: can prevent the induction of Straub tail
